Results from patent US20250195416A1, “DISSOLVABLE POLYMERIC OCULAR INSERT FOR DRUGS DELIVERY” (Alcon Inc., priority 2023, published 2025).

Experiment: In vitro release of olopatadine from polymer gel films (USP Apparatus 7, HPLC-UV)
Assay type: physicochemical
Details: FIGS. 1A and 1B
Procedure: Release of olopatadine from polymer gel films was studied in vitro using water or phosphate buffered saline (PBS) as the dissolution media. Dissolution was performed using USP Apparatus 7 and samples were collected by its autosampler. HPLC—with UV-vis detector was used to measure component concentration during dissolution samples at different time points. […] Olopatadine HCl remains as a zwitterion at physiological pH due to the negatively charged carboxylic group and positively charged tertiary amino group on the molecule, therefore possible mechanism of API release from the gel films into dissolution media is through ion exchange. HA in gel films may complex with olopatadine through ionic interaction. […] Dissolution media plays a main role in the release profiles, as ionic bonding occurred between HA and Olopatadine. Ionic polymer provides some prolong release. Diffusion is believed to be the main release mechanism. PBS: phosphate-buffered saline pH 7.2; DI water: deionized water.

With `CN(C)CC/C=C1/c2ccccc2COc2ccc(CC(=O)O)cc21.Cl` [olopatadine, 11-[(Z)-3-(Dimethylamino)propylidene]-6-11-dihydrodibenz[b,e] oxepin-2-acetic acid hydrochloride] the “Olopatadine release rate, PBS versus water” value (dissolution media PBS pH 7.2 or DI water) was “faster in PBS than in water” and the “Burst release of olopatadine” value (water and PBS) was “no burst release”.
